Laboratory results reported in patent US10428087B2, “Pyrimidinones as PI3K inhibitors” (Incyte Corporation, priority 2009, dated 2019).

Experiments:
[1] = molecular target: PI3Kγ (Homo sapiens (Human), UniProt P48736); assay: PI3K enzyme assay, [γ-33P]ATP filter plate (Example A2), PI3Kγ; assay type: biochemical; conditions: read-out: PI3Kγ^c IC50
Procedure: Materials: Lipid kinase substrate, phosphoinositol-4,5-bisphosphate (PIP2), was purchased from Echelon Biosciences (Salt Lake City, Utah). PI3K isoforms α, β, δ and γ were purchased from Millipore (Bedford, Mass.). ATP, MgCl2, DTT, EDTA, MOPS and CHAPS were purchased from Sigma—Aldrich (St. Louis, Mo.).
(§1) The kinase reaction was conducted in clear-bottom 96-well plate from Thermo Fisher Scientific in a final volume of 24 μL. Inhibitors were first diluted serially in DMSO and added to the plate wells before the addition of other reaction components. The final concentration of DMSO in the assay was 0.5%. The PI3K assays were carried out at room temperature in 20 mM MOPS, pH 6.7, 10 mM MgCl2, 5 mM DTT and CHAPS 0.03%. The reaction mixture was prepared containing 50 μM PIP2, kinase and varying concentration of inhibitors. Reactions were initiated by the addition of ATP containing 2.2 μCi [γ-^33P]ATP to a final concentration of 1000 μM. The final concentration of PI3K isoforms α, β, δ and γ in the assay were 1.3, 9.4, 2.9 and 10.8 nM respectively. Reactions were incubated for 180 min and terminated by the addition of 100 μL of 1 M potassium phosphate pH 8.0, 30 mM EDTA quench buffer. […] After the plate sealing, the radioactivity of the product was determined by scintillation counting on Topcount (Perkin-Elmer). […]

[2] = molecular target: PI3Kβ (Homo sapiens (Human), UniProt P42338); assay: PI3K enzyme assay, [γ-33P]ATP filter plate (Example A2), PI3Kβ; assay type: biochemical; conditions: read-out: PI3Kβ^c IC50
PI3Kβ, sequence (P42338 whole entry, species assumed, canonical isoform): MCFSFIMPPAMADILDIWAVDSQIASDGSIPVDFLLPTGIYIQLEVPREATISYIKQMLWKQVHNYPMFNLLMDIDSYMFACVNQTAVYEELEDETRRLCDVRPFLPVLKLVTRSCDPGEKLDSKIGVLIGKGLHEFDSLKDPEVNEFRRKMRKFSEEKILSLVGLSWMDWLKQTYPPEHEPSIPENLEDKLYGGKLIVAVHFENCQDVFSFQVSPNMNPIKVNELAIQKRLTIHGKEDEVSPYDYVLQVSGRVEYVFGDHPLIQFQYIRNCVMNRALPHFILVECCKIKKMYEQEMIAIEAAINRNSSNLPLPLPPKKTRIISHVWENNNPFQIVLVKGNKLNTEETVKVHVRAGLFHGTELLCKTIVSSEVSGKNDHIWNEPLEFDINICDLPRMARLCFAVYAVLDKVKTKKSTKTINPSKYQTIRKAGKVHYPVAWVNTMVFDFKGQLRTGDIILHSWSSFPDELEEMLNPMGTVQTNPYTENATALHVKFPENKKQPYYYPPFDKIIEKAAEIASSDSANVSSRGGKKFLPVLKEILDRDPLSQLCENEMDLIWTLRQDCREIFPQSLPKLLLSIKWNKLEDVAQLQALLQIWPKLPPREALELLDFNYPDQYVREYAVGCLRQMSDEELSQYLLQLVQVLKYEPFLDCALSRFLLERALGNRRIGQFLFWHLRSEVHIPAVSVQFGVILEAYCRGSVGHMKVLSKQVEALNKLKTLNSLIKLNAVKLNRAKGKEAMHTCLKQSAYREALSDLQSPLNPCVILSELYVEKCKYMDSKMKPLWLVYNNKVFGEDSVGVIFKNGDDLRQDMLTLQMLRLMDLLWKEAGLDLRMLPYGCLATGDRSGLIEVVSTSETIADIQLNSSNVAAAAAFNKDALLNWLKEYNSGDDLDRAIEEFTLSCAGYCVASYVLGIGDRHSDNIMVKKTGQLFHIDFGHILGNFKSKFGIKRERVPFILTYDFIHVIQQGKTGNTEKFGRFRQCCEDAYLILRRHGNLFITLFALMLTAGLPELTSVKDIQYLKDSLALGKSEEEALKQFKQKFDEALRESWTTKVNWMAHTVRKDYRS
PI3Kβ, sequence (P27986 whole entry partner, species assumed, canonical isoform): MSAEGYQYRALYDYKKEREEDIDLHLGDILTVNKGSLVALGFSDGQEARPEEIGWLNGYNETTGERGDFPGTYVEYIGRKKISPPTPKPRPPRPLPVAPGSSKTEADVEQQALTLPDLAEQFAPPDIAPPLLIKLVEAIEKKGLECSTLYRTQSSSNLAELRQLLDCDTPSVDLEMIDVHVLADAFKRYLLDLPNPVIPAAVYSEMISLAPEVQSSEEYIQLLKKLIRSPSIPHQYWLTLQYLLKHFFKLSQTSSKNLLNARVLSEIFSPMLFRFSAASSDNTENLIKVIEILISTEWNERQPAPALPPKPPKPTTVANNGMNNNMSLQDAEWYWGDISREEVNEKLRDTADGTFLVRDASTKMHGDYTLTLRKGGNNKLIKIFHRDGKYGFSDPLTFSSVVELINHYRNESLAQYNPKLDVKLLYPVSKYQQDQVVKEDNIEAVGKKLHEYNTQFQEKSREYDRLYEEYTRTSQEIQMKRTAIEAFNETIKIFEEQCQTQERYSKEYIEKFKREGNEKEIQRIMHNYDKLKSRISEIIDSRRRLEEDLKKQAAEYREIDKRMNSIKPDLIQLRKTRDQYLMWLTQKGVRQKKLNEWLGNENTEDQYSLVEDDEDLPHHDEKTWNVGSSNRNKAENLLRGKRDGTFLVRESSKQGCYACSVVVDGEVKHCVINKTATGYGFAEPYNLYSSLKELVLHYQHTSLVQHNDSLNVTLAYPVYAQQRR
Procedure: as §1, with “Materials: Lipid kinase substrate, phosphoinositol-4,5-bisphosphate (PIP2), was purchased from Echelon Biosciences (Salt Lake City, Utah). PI3K isoforms α, β, δ and γ were purchased from Millipore (Bedford, Mass.). ATP, MgCl2, DTT, EDTA, MOPS and CHAPS were purchased from Sigma—Aldrich (St. Louis, Mo.). The kinase” for “The kinase”, “1000 μM. […] Reactions were” for “1000 μM. The final concentration of PI3K isoforms α, β, δ and γ in the assay were 1.3, 9.4, 2.9 and 10.8 nM respectively. Reactions were”

[3] = molecular target: PI3Kα (Homo sapiens (Human), UniProt P42336); assay: PI3K enzyme assay, [γ-33P]ATP filter plate (Example A2), PI3Kα; assay type: biochemical; conditions: read-out: PI3Kα^c IC50
PI3Kα, sequence (P42336 whole entry, species assumed, canonical isoform): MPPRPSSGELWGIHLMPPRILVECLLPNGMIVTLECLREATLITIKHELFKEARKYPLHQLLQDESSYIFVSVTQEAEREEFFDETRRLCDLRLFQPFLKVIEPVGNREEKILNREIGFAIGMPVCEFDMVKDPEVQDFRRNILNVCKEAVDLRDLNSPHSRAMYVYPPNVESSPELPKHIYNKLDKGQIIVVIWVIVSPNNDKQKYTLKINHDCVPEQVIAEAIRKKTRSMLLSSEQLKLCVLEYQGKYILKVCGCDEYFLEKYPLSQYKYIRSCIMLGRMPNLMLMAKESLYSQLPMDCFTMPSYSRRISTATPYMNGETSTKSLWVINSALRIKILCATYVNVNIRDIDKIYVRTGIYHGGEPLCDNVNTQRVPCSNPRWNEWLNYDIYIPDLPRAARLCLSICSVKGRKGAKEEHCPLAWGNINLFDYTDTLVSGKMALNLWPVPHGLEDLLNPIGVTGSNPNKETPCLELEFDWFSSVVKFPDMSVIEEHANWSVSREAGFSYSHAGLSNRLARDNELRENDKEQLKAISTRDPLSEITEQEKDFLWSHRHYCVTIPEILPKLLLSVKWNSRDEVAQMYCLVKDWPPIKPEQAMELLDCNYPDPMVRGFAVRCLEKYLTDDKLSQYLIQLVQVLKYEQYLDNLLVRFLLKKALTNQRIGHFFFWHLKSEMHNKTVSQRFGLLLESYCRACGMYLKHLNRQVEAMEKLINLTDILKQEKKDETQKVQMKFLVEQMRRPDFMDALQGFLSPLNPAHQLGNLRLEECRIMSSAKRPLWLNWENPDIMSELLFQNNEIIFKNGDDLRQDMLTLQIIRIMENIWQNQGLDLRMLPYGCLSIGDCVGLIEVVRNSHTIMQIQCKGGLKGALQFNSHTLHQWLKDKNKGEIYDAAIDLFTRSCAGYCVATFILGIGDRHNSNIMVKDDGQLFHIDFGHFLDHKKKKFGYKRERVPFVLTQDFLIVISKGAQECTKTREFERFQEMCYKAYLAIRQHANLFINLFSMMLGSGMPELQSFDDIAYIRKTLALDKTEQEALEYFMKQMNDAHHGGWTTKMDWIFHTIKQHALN
PI3Kα, sequence (P27986 whole entry partner, species assumed, canonical isoform): as the sequence (P27986 whole entry partner, species assumed, canonical isoform) above
Procedure: Materials: Lipid kinase substrate, phosphoinositol-4,5-bisphosphate (PIP2), was purchased from Echelon Biosciences (Salt Lake City, Utah). PI3K isoforms α, β, δ and γ were purchased from Millipore (Bedford, Mass.). […] The kinase reaction was conducted in clear-bottom 96-well plate from Thermo Fisher Scientific in a final volume of 24 μL. Inhibitors were first diluted serially in DMSO and added to the plate wells before the addition of other reaction components. The final concentration of DMSO in the assay was 0.5%. The PI3K assays were carried out at room temperature in 20 mM MOPS, pH 6.7, 10 mM MgCl2, 5 mM DTT and CHAPS 0.03%. The reaction mixture was prepared containing 50 μM PIP2, kinase and varying concentration of inhibitors. Reactions were initiated by the addition of ATP containing 2.2 μCi [γ-^33P]ATP to a final concentration of 1000 μM. […] Reactions were incubated for 180 min and terminated by the addition of 100 μL of 1 M potassium phosphate pH 8.0, 30 mM EDTA quench buffer. […] The filter plate was aspirated on a Millipore Manifold under vacuum and washed with 18×200 μL wash buffer containing 1 M potassium phosphate pH 8.0 and 1 mM ATP. After drying by aspiration and blotting, the plate was air dried in an incubator at 37° C. overnight. […] After the plate sealing, the radioactivity of the product was determined by scintillation counting on Topcount (Perkin-Elmer). […]

[4] = tested on: B cells; assay: B cell proliferation assay (Example B1); assay type: cell-based; conditions: B-cell; purified human B cells, anti-human IgM, [3H]-thymidine
Procedure: To acquire B cells, human PBMC were isolated from the peripheral blood of normal, drug free donors by standard density gradient centrifugation on Ficoll-Hypague (GE Healthcare, Piscataway, N.J.) and incubated with anti-CD19 microbeads (Miltenyi Biotech, Auburn, Calif.). The B cells were then purified by positive immunosorting using an autoMacs (Miltenyi Biotech) according to the manufacturer's instruction.
The purified B cells (2×10^5/well/200 μL) were cultured in 96-well ultra-low binding plates (Corning, Corning, N.Y.) in RPMI1640, 10% FBS and goat F(ab′)2 anti-human IgM ([…]) (Invitrogen, Carlsbad, Calif.), in the presence of different amount of test compounds, […] [^3H]-thymidine (1 μCi/well) (PerkinElmer, Boston, Mass.) in PBS was then added to the B cell cultures for an additional 12 hrs before the incorporated radioactivity was separated by filtration with water through GF/B filters (Packard Bioscience, Meriden, Conn.) and measured by liquid scintillation counting with a TopCount (Packard Bioscience). […] See Table 2 for data related to compounds of the invention.

[5] = tested on: Pfeiffer cell line (diffuse large B cell lymphoma); assay: Pfeiffer cell proliferation assay (Example B2); assay type: cell-based; conditions: Homo sapiens, Pfeiffer, Pfeiffer cells, [3H]-thymidine
Procedure: Pfeiffer cell line (diffuse large B cell lymphoma) was purchased from ATCC (Manassas, Va.) and maintained in the culture medium recommended (RPMI and 10% FBS). To measure the anti-proliferation activity of the PI3Kδ submittals, the Pfeiffer cells were plated with the culture medium (2×10^3 cells/well/per 200 μl) into 96-well ultra-low binding plates (Corning, Corning, N.Y.), in the presence or absence of a concentration range of test compounds. After 3-4 days, [^3H]-thymidine (1 μCi/well) (PerkinElmer, Boston, Mass.) in PBS was then added to the cell culture for an additional 12 hrs before the incorporated radioactivity was separated by filtration with water through GF/B filters (Packard Bioscience, Meridenj, Conn.) and measured by liquid scintillation counting with a TopCount (Packard Bioscience). See Table 3 for data related to compounds of the invention.

PI3Kγ, sequence (P48736 whole entry, species assumed, canonical isoform): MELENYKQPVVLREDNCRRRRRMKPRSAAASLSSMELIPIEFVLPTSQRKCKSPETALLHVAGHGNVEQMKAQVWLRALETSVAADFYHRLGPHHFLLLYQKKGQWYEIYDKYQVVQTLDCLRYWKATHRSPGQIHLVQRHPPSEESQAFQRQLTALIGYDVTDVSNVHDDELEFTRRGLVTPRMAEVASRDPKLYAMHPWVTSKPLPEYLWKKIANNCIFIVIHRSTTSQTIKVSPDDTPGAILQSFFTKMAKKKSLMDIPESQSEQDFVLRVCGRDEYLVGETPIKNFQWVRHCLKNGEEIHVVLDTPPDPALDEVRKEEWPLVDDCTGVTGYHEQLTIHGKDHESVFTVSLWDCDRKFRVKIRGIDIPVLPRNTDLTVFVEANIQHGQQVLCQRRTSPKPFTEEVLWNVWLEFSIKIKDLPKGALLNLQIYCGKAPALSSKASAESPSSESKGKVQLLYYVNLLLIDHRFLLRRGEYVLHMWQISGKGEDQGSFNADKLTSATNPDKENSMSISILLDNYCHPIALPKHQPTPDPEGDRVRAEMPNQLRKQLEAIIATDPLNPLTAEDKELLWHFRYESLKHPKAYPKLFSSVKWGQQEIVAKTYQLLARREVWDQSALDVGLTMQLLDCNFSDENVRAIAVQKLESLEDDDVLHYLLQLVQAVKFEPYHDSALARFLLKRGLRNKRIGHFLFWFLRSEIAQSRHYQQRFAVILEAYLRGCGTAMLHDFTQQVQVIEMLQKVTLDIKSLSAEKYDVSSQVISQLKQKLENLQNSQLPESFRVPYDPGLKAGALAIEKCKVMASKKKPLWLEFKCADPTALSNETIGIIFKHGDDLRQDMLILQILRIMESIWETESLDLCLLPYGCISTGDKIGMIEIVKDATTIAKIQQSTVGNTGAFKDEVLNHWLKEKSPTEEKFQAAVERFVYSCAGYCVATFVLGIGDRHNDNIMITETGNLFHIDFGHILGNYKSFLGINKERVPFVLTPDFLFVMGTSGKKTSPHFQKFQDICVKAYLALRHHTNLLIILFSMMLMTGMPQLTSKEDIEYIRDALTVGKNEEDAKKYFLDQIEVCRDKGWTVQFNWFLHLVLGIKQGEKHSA

Row | IC50 [1] [nM] | IC50 [2] [nM] | IC50 [3] [nM] | IC50 [5] [nM] | Compound | IC50 [4] [nM]
1 | > 500 | > 500 | > 500 | – | Cc1csc2nc(C(C)Nc3ncnc4[nH]cnc34)c(-c3cc(F)cc(F)c3)c(=O)n12 (single isomer, unassigned) [Example 44, 6-(3,5-difluorophenyl)-3-methyl-7-[1-(9H-purin-6-ylamino)ethyl]-5H-[1,3]thiazolo[3,2-a]pyrimidin-5-one] | –
2 | – | – | – | 100 to 500 | CCC(Nc1ncnc2[nH]cnc12)c1nc2cccc(C)n2c(=O)c1-c1cncc(F)c1 (stereo not shown) [Example 3, 3-(5-fluoropyridin-3-yl)-6-methyl-2-[1-(9H-purin-6-ylamino)propyl]-4H-pyrido[1,2-a]pyrimidin-4-one] | < 50
3 | – | – | – | < 50 | Cc1csc2nc(C(C)Nc3nc(N)nc4[nH]cnc34)c(-c3cccc(F)c3)c(=O)n12 (stereo not shown) [Example 11, 7-{1-[(2-amino-9H-purin-6-yl)amino]ethyl}-6-(3-fluorophenyl)-3-methyl-5H-[1,3]thiazolo[3,2-a]pyrimidin-5-one] | < 50
4 | – | – | – | < 50 | CCC(Nc1ncnc2[nH]cnc12)c1nc2cccc(C)n2c(=O)c1-c1ccccc1 (stereo not shown) [Example 2, 6-methyl-3-phenyl-2-[1-(9H-purin-6-ylamino)propyl]-4H-pyrido[1,2-a]pyrimidin-4-one] | 100 to 500
5 | – | – | – | 500 to 1000 | CCC(Nc1ncnc2[nH]cnc12)c1nc2cccc(C)n2c(=O)c1-c1cn[nH]c1 (stereo not shown) [Example 7, 6-methyl-2-[1-(9H-purin-6-ylamino)propyl]-3-(1H-pyrazol-4-yl)-4H-pyrido[1,2-a]pyrimidin-4-one] | > 500
6 | – | – | – | 50 to 100 | CCC(Nc1ncnc2[nH]cnc12)c1nc2cccc(C)n2c(=O)c1-c1cc(F)cc(F)c1 (stereo not shown) [Example 5, 3-(3,5-difluorophenyl)-6-methyl-2-[1-(9H-purin-6-ylamino)propyl]-4H-pyrido[1,2-a]pyrimidin-4-one] | < 50
